Structures are written as SMILES. pIC50: −log10 of the molar value. Read-outs that look alike come from different tables or passages of the source.

One test addresses KRAS^G12D/cRAF (Homo sapiens, UniProt P01116, G12D). Put plainly: KRAS G12D/cRAF binding test (Alphalisa). The conditions noted are these: His-tagged KRAS G12D + GMPPNP, GST-tagged cRAF. How it is done: The compound was dissolved in 100% DMSO at a starting concentration of 5 mM and diluted in DMSO with a 3-fold serial dilution method for a total of 8 concentration points. 1 μL of the compound or DMSO at each concentration point was added into 99 μL of the experimental buffer to obtain 10× stock solution.
• 1) 4 μL of the working mixture solution of His-tagged KRAS^G12D and GMPPNP was added to the 384-well plate. • 2) The 10× compound stock solution or 1% DMSO was added to the 384-well plate. • 3) The plate was centrifuged at 1000 rpm for 1 minute. • 4) 4 μL of GST-tagged cRAF solution was added to the 384-well plate. • 5) The plate was centrifuged at 1000 rpm for 1 minute. • 6) The plate was incubated at room temperature for 15 minutes. • 7) 10 μL of detection working solution was added to the 384-well plate. • 8) The plate was centrifuged at 1000 rpm for 1 minute. • 9) The plate was incubated at room temperature for 60 minutes. • 10) The 384-well plate was placed into Envision and assay data was obtained.
(§1) The ratio for each compound concentration was calculated from the signal of the DMSO control group contained in each assay plate and the Alphalisa signal in each compound well. The compound concentration required for inhibitory concentration at 50% (IC50) was determined using a four-parameter logarithmic dose-response equation by testing the concentration of the compound and the value of the ratio. The endpoint value (IC50) of the reference compound was assessed in each experiment as a quality control measure. If the endpoint value is within three times the expected value, the experiment may be considered acceptable.

For another test, the system named is AGS cell. In words: Anti-proliferative 2D CTG assay, AGS cells. The test is classed as cell-based. The conditions noted are these: Homo sapiens, 72 h, AGS cells, incubated 3 days, CTG, read-out: AGS cell IC50. On the procedure: When the cell confluence was about 80%, the cells were isolated with 0.25% trypsin. Isolated cells were resuspended in 5 mL fresh cell culture medium and centrifuged for cell collection. Meanwhile, the number of cells was also calculated. The cells were then suspended in culture medium of medium concentration. The cells were placed into a 96-well plate with 1000 cells/well for AGS and 1000 cells/well for GP2D. The 96-well plate was placed in an incubator at 37° C. and incubated overnight.
1.2 Day 1 Compound Treatment From the 10 mM stock solution, with a ratio of 1:5, 10-point serial dilutions were performed. The 10× medium containing the compound was transferred into corresponding wells of the 96 wells. The final maximum compound concentration was […] and the final DMSO concentration was 0.1%. The 96-well plate was placed in a 37° C. incubator, the AGS cells were incubated for 3 days, and the GP2D cells were incubated for 4 days.
50 μL/well of detection reagent (CTG) was added to the AGS cells, and the signal was read in an Envision machine.
as §1, with “The percent inhibition (%) at” for “The ratio for”, “signal in” for “signal of”, “the HPE and ZPE” for “the DMSO”, “control wells and the fluorescence signal in the individual compound wells included” for “control group contained”, “assay plate. […]” for “assay plate and the Alphalisa signal in each compound well.”, “the inhibition percentage value.” for “the value of the ratio.”

Chain of KRAS^G12D/cRAF (P01116 1-188 isoform P01116-2 G12D): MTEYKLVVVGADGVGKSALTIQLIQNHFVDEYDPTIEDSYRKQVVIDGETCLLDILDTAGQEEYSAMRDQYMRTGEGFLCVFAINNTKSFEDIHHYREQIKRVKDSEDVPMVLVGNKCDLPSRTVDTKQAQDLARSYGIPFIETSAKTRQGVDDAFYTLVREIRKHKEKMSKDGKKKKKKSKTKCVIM

For `[2H]C([2H])([2H])OCC12CCC(CN(c3nc(OC[C@@]45CCCN4C[C@H](F)C5)nc4c(F)c(-c5cc(O)cc6cc(F)c(F)c(C#C)c56)ncc34)C1)N2` (stereo partly drawn) [Example 15, 5-ethynyl-6,7-difluoro-4-(8-fluoro-2-(((2R,7aS)-2-fluorotetrahydro-1H-pyrrolizin-7a(5H)-yl)methoxy)-4-(1-((methoxy-d3)methyl)-3,8-diazabicyclo[3.2.1]octan-3-yl)pyrido[4,3-d]pyrimidin-7-yl)naphthalen-2-ol], the pIC50 at KRAS^G12D/cRAF (class symbols) and with AGS cell (class symbols) was 6.30 to 7.30 each time.
Turning to `C#Cc1c(F)ccc2cc(O)cc(-c3ncc4c(N5CC6CCC(CCF)(C5)N6)nc(OC[C@@]56CCCN5C[C@H](F)C6)nc4c3F)c12` (stereo partly drawn) [Example 8, 5-ethynyl-6-fluoro-4-(8-fluoro-4-(1-(2-fluoroethyl)-3,8-diazabicyclo[3.2.1]octan-3-yl)-2-(((2R,7aS)-2-fluorotetrahydro-1H-pyrrolizin-7a(5H)-yl)methoxy)pyrido[4,3-d]pyrimidin-7-yl) naphthalen-2-ol], the pIC50 on KRAS^G12D/cRAF (class symbols) and with AGS cell (class symbols) was more than 7.30 each time.
Regarding `C#Cc1c(F)ccc2cc(O)cc(-c3ncc4c(N5CC6CCC(CN(C)C(C)=O)(C5)N6)nc(OC[C@@]56CCCN5C[C@H](F)C6)nc4c3F)c12` (stereo partly drawn) [Example 25, N-((3-(7-(8-ethynyl-7-fluoro-3-hydroxynaphthalen-1-yl)-8-fluoro-2-(((2R,7aS)-2-fluorotetrahydro-1H-pyrrolizin-7a(5H)-yl)methoxy)pyrido[4,3-d]pyrimidin-4-yl)-3,8-diazabicyclo[3.2.1]octan-1-yl)methyl)-N-methylacetamide], the results for the pIC50 at KRAS^G12D/cRAF (class symbols) and in the test on AGS cell (class symbols) were 6.30 to 7.30 and less than 6.30, respectively.
As to `[2H]C([2H])([2H])OC[C@]12CC[C@H](CN(c3nc(OC[C@@]45CCCN4C[C@H](F)C5)nc4c(F)c(-c5cc(O)cc6ccc(F)c(C#C)c56)nc(OC)c34)C1)N2` [Example 49, 5-ethynyl-6-fluoro-4-(8-fluoro-2-(((2R,7aS)-2-fluorotetrahydro-1H-pyrrolizin-7a(5H)-yl)methoxy)-5-methoxy-4-((1S,5R)-1-((methoxy-d3)methyl)-3,8-diazabicyclo[3.2.1]octan-3-yl)pyrido[4,3-d]pyrimidin-7-yl)naphthalen-2-ol], the pIC50 is 6.58 on KRAS^G12D/cRAF (numeric values) and 6.54 in the test with AGS cell (numeric values).
On to `C#Cc1c(F)ccc2cc(O)cc(-c3ncc4c(N5C[C@@H]6CC[C@](/C=C/F)(C5)N6)nc(OC[C@@]56CCCN5C[C@H](F)C6)nc4c3F)c12` [Example 62, 5-ethynyl-6-fluoro-4-(8-fluoro-2-(((2R,7aS)-2-fluorotetrahydro-1H-pyrrolizin-7a(5H)-yl)methoxy)-4-((1S,5S)-1-((E)-2-fluorovinyl)-3,8-diazabicyclo[3.2.1]octan-3-yl)pyrido[4,3-d]pyrimidin-7-yl)naphthalen-2-ol], for which the pIC50 at KRAS^G12D/cRAF (numeric values) was 7.74; with AGS cell (numeric values), 7.57.
Regarding `C#Cc1c(F)ccc2cc(O)cc(-c3ncc4c(N5CC6CCC(CCOC)(C5)N6)nc(OC[C@@]56CCCN5C[C@H](F)C6)nc4c3F)c12` (stereo partly drawn) [Example 9, 5-ethynyl-6-fluoro-4-(8-fluoro-2-(((2R,7aS)-2-fluorotetrahydro-1H-pyrrolizin-7a(5H)-yl)methoxy)-4-(1-(2-methoxyethyl)-3,8-diazabicyclo[3.2.1]octan-3-yl)pyrido[4,3-d]pyrimidin-7-yl) naphthalen-2-ol], the pIC50 at KRAS^G12D/cRAF (class symbols) and in the test with AGS cell (class symbols) was 6.30 to 7.30 each time.
On to `C#Cc1c(F)ccc2cc(O)cc(-c3ncc4c(N5CC6CCC(COC(F)F)(C5)N6)nc(OC[C@@]56CCCN5C[C@H](F)C6)nc4c3F)c12` (stereo partly drawn) [Example 4, 4-(4-(1-((difluoromethoxy)methyl)-3,8-diazabicyclo[3.2.1]octan-3-yl)-8-fluoro-2-(((2R,7aS)-2-fluorotetrahydro-1H-pyrrolizin-7a(5H)-yl)methoxy)pyrido[4,3-d]pyrimidin-7-yl)-5-ethynyl-6-fluoronaphthalen-2-ol], for which the negative-log IC50 (pIC50) on KRAS^G12D/cRAF (class symbols) and with AGS cell (class symbols) was 6.30 to 7.30 each time.
Take `C#Cc1c(F)ccc2cc(O)cc(-c3ncc4c(N5C[C@@H]6CC[C@](C=C)(C5)N6)nc(OC[C@@]56CCCN5C[C@H](F)C6)nc4c3F)c12` [Example 58, 5-ethynyl-6-fluoro-4-(8-fluoro-2-(((2R,7aS)-2-fluorotetrahydro-1H-pyrrolizin-7a(5H)-yl)methoxy)-4-((1S,5S)-1-vinyl-3,8-diazabicyclo[3.2.1]octan-3-yl)pyrido[4,3-d]pyrimidin-7-yl)naphthalen-2-ol]: the pIC50 on KRAS^G12D/cRAF (numeric values) is 7.33; with AGS cell (numeric values), 6.90.
Turning to `[2H]C([2H])([2H])OCC12CCC(C)(CN(c3nc(OC[C@@]45CCCN4C[C@H](F)C5)nc4c(F)c(-c5cc(O)cc6ccc(F)c(C#C)c56)ncc34)C1)N2` (stereo partly drawn) [Example 18, 5-ethynyl-6-fluoro-4-(8-fluoro-2-(((2R,7aS)-2-fluorotetrahydro-1H-pyrrolizin-7a(5H)-yl)methoxy)-4-(1-((methoxy-d3)methyl)-5-methyl-3,8-diazabicyclo [3.2.1]octan-3-yl)pyrido[4,3-d]pyrimidin-7-yl)naphthalen-2-ol], the pIC50 on KRAS^G12D/cRAF (class symbols) and in the test on AGS cell (class symbols) was 6.30 to 7.30 in each case.
Turning to `[2H]C([2H])([2H])C12CCC(CN(c3nc(OC[C@@]45CCCN4C[C@H](F)C5)nc4c(F)c(-c5cc(O)cc6ccc(F)c(C#C)c56)ncc34)C1)N2` (stereo partly drawn) [Example 7, 5-ethynyl-6-fluoro-4-(8-fluoro-2-(((2R,7aS)-2-fluorotetrahydro-1H-pyrrolizin-7a(5H)-yl)methoxy)-4-(1-(methyl-d3)-3,8-diazabicyclo[3.2.1]octan-3-yl)pyrido [4,3-d]pyrimidin-7-yl) naphthalen-2-ol], the pIC50 is 8.37 at KRAS^G12D/cRAF (numeric values) and 7.55 in the test with AGS cell (numeric values).
For the molecule `C#Cc1c(F)ccc2cc(O)cc(-c3ncc4c(N5CC6CCC(C#C)(C5)N6)nc(OC[C@@]56CCCN5C[C@H](F)C6)nc4c3F)c12` (stereo partly drawn) [Example 6, 5-ethynyl-4-(4-(1-ethynyl-3,8-diazabicyclo[3.2.1]octan-3-yl)-8-fluoro-2-(((2R,7aS)-2-fluorotetrahydro-1H-pyrrolizin-7a(5H)-yl)methoxy)pyrido[4,3-d]pyrimidin-7-yl)-6-fluoronaphthalen-2-ol], the negative-log IC50 (pIC50) on KRAS^G12D/cRAF (class symbols) is 6.30 to 7.30; in the test with AGS cell (class symbols), more than 7.30.
Take `C#Cc1c(F)ccc2cc(O)cc(-c3ncc4c(N5CC6CCC(CC(=O)OC)(C5)N6)nc(OC[C@@]56CCCN5C[C@H](F)C6)nc4c3F)c12` (stereo partly drawn) [Example 34, Methyl 2-(3-(7-(8-ethynyl-7-fluoro-3-hydroxynaphthalen-1-yl)-8-fluoro-2-(((2R,7aS)-2-fluorohexahydro-1H-pyrrolizin-7a-yl)methoxy)pyrido[4,3-d]pyrimidin-4-yl)-3,8-diazabicyclo[3.2.1]octan-1-yl)acetate]: the pIC50 at KRAS^G12D/cRAF (class symbols) was more than 7.30; with AGS cell (class symbols), 6.30 to 7.30.
Taken in the same sequence, the figures for `[2H]C([2H])([2H])OCC12CCC(CN(c3nc(OC[C@@]45CCCN4C[C@H](F)C5)nc4c(F)c(-c5cc(O)cc6cc(Cl)c(F)c(C#C)c56)ncc34)C1)N2` (stereo partly drawn) [Example 16, 7-chloro-5-ethynyl-6-fluoro-4-(8-fluoro-2-(((2R,7aS)-2-fluorotetrahydro-1H-pyrrolizin-7a(5H)-yl)methoxy)-4-(1-((methoxy-d3)methyl)-3,8-diazabicyclo [3.2.1]octan-3-yl)pyrido[4,3-d]pyrimidin-7-yl)naphthalen-2-ol] were less than 6.30 and 6.30 to 7.30.
Take `C#Cc1c(F)ccc2cc(O)cc(-c3ncc4c(N5C[C@H]6CC[C@@](CC)(C5)N6)nc(OC[C@@]56CCCN5C[C@H](F)C6)nc4c3F)c12` [Example 53, 4-(4-((1S,5R)-1-ethyl-3,8-diazabicyclo[3.2.1]octan-3-yl)-8-fluoro-2-(((2R,7aS)-2-fluorotetrahydro-1H-pyrrolizin-7a(5H)-yl)methoxy)pyrido[4,3-d]pyrimidin-7-yl)-5-eth ynyl-6-fluoronaphthalen-2-ol]: the negative logarithm of the IC50 (pIC50) on KRAS^G12D/cRAF (numeric values) was 6.66; with AGS cell (numeric values), 6.15.

As a reminder, the pIC50 is the IC50 on a negative log10 scale, so that one unit is a factor of ten.

Source of the values: patent US20260176262A1, “KRAS INHIBITORS, PREPARATION METHOD THEREFOR, AND PHARMACEUTICAL USE THEREOF” (ABBISKO THERAPEUTICS CO., LTD., priority 2021, published 2026).
